Assay results from patent US4864023A, “Pyrido(3,2,1-IJ)-1,3,4-benzoxadiazine derivatives” (priority 1988, dated 1989).
≈ marks a conversion by molar mass, not a printed value. Where a name gives a salt, the structure may show the parent alone. Read-outs that look alike come from different tables or passages of the source.

Key:
[1] = tested on: Escherichia coli ML4707; test: in vivo therapeutic efficacy, lethal systemic infection in mice; details: E. coli ML4707 i.p. infection, ICR mice, p.o. at time of injection, mortality 5 days
Experimental: The in vivo antibacterial activities of pyrido[3,2,1-ij]-1,3,4-benzoxadiazine derivatives prepared by Example 5, Example 30, Example 65 and Example 66 as mentioned below were tested against lethal infection of Escherichia coli ML4707, Pseudomonas aeruginosa 4au542 and Streptococcus pneumoniae 6-001. ICR mice weighing about 20 g were infected by intraperitoneal injection of a corresponding bacterial suspension. The test compounds were administered orally or subcutaneously at the time of injection. […] The respective 50% effective dose (ED50, mg/kg) which protects 50% of the animals from death caused by infection, is shown in Table 3.

[2] = tested on: Bacillus subtilis PCI 219; test: in vitro antibacterial activity, standard agar dilution method; format: cell-based; details: PCI219, aerobic, read-out: minimum inhibitory concentration (MIC)
[3] = tested on: Pseudomonas stutzeri IFO 12695; test: as above; format: cell-based; details: Stutzerimonas stutzeri, IFO12695, aerobic, read-out: minimum inhibitory concentration (MIC)
[4] = tested on: Citrobacter freundii IFO 12681; test: as above; format: cell-based; details: IFO12681, aerobic, read-out: minimum inhibitory concentration (MIC)
[5] = tested on: Enterobacter cloacae NR 2946; test: as above; format: cell-based; details: NR2946, aerobic, read-out: minimum inhibitory concentration (MIC)
[6] = tested on: Bordetella bronchiseptica ATCC 4617; test: as above; format: cell-based; details: ATCC4617, aerobic, read-out: minimum inhibitory concentration (MIC)
[7] = tested on: Serratia marcescens IFO 12648; test: as above; format: cell-based; details: IFO12648, aerobic, read-out: minimum inhibitory concentration (MIC)
[8] = tested on: Staphylococcus epidermidis NR 2942; test: as above; format: cell-based; details: NR2942, aerobic, read-out: minimum inhibitory concentration (MIC)
[9] = tested on: Escherichia coli NR 2630; test: as above; format: cell-based
[10] = tested on: Escherichia coli NIHJ JC-2; test: as above; format: cell-based; details: NIHJJC2, aerobic, read-out: minimum inhibitory concentration (MIC)
[11] = tested on: Alcaligenes faecalis IFO 13111; test: as above; format: cell-based; details: IFO13111, aerobic, read-out: minimum inhibitory concentration (MIC)
[12] = tested on: Staphylococcus aureus Smith; test: as above; format: cell-based; details: read-out: minimum inhibitory concentration (MIC)
[13] = tested on: Pseudomonas aeruginosa NR 2950; test: as above; format: cell-based; details: NR2950, aerobic, read-out: minimum inhibitory concentration (MIC)
[14] = tested on: Pseudomonas aeruginosa A3; test: as above; format: cell-based; details: aerobic, read-out: minimum inhibitory concentration (MIC)
[15] = tested on: Enterobacter aerogenes NR 2945; test: as above; format: cell-based; details: Klebsiella aerogenes, NR2945, aerobic, read-out: minimum inhibitory concentration (MIC)
[16] = acute toxicity by oral administration; details: mouse, in vivo; oral administration, ICR mice; read-out: LD50
Text: The acute toxicity of these compounds was examined by oral administration in ICR mice.

[17] = tested on: Proteus rettgeri ATCC 14505; test: in vitro antibacterial activity, standard agar dilution method; format: cell-based; details: Providencia rettgeri, ATCC14505, aerobic, read-out: minimum inhibitory concentration (MIC)
[18] = tested on: Staphylococcus aureus FDA 209P JC-1; test: as above; format: cell-based; details: FDA209P, read-out: minimum inhibitory concentration (MIC)
[19] = tested on: Proteus vulgaris OX19 ATCC 6898; test: as above; format: cell-based; details: ATCC6898, aerobic, read-out: minimum inhibitory concentration (MIC)
[20] = tested on: Salmonella typhimurium IFO 12529; test: as above; format: cell-based; details: Salmonella enterica, aerobic, read-out: minimum inhibitory concentration (MIC)
[21] = tested on: Enterococcus faecalis NR 2943; test: as above; format: cell-based; details: NR2943, aerobic, read-out: minimum inhibitory concentration (MIC)
[22] = tested on: Staphylococcus aureus NR 2855; test: as above; format: cell-based; details: NR2855; Staphylococcus aureus NR 2855; aerobic; agar dilution; read-out: minimum inhibitory concentration (MIC)
[23] = tested on: Klebsiella pneumoniae FDA PCI 602; test: as above; format: cell-based; details: FDAPCI602, aerobic, read-out: minimum inhibitory concentration (MIC)
[24] = tested on: Staphylococcus epidermidis IFO 12993; test: as above; format: cell-based; details: IFO12993, aerobic, read-out: minimum inhibitory concentration (MIC)
[25] = NR2630, Escherichia coli NR 2630, aerobic, agar dilution, read-out: minimum inhibitory concentration (MIC)
[26] = Staphylococcus aureus Smith, aerobic, agar dilution
[27] = Staphylococcus aureus FDA 209P JC-1, aerobic, agar dilution

In the case of `CN1COc2c(N3CCC(N)C3)c(F)cc3c(=O)c(C(=O)O)cn1c23` (stereo not shown) [Example 66, 10-(3-amino-1-pyrrolidinyl)-9-fluoro-3-methyl-7-oxo-2,3-dihydro-7H-pyrido[3,2,1-ij]-1,3,4-benzoxadiazine-6-carboxylic acid hydrochloride], the “50% effective dose (ED50)” value ([1]; hydrochloride, 7200 min) is reported as 0.51 mg/kg.

In the case of `CN1COc2c(N3CCNCC3)c(F)cc3c(=O)c(C(=O)O)cn1c23` [Example 6, 9-fluoro-3-methyl-7-oxo-10-(1-piperazinyl)-2,3-dihydro-7H-pyrido[3,2,1-ij]-1,3,4-benzoxadiazine-6-carboxylic acid], the MIC [2] is reported as 0.1 µg/mL (≈ 0.287 µM), the MIC [3] is reported as 0.025 µg/mL (≈ 0.0718 µM) and the MIC [4] is reported as 0.013 µg/mL (≈ 0.0373 µM). It also gave an MIC [5] of 0.025 µg/mL (≈ 0.0718 µM), an MIC [6] of 6.25 µg/mL (≈ 17.9 µM) and an MIC [7] of 0.1 µg/mL (≈ 0.287 µM). For the same compound, the MIC [8] was 1.56 µg/mL (≈ 4.48 µM), the MIC ([9]; Escherichia coli, NR2630, read-out: minimum inhibitory concentration (MIC)) was 0.025 µg/mL (≈ 0.0718 µM) and the MIC [10] was 0.025 µg/mL (≈ 0.0718 µM). It also gave an MIC [11] of 3.13 µg/mL (≈ 8.99 µM), an MIC ([12]; Staphylococcus aureus) of 0.39 µg/mL (≈ 1.12 µM) and an MIC [13] of 0.78 µg/mL (≈ 2.24 µM). The MIC [14] was 0.1 µg/mL (≈ 0.287 µM), the MIC [15] was 0.013 µg/mL (≈ 0.0373 µM) and the LD50 [16] was greater than 2000 mg/kg. It also gave an MIC [17] of 0.1 µg/mL (≈ 0.287 µM), an MIC ([18]; Staphylococcus aureus) of 0.39 µg/mL (≈ 1.12 µM) and an MIC [19] of 0.013 µg/mL (≈ 0.0373 µM). The MIC [20] was 0.013 µg/mL (≈ 0.0373 µM), the MIC [21] was 12.5 µg/mL (≈ 35.9 µM) and the MIC [22] was 3.13 µg/mL (≈ 8.99 µM). It also gave an MIC [23] of 0.1 µg/mL (≈ 0.287 µM) and an MIC [24] of 1.56 µg/mL (≈ 4.48 µM).

In the case of `CN1COc2c(-n3ccnc3)c(F)cc3c(=O)c(C(=O)O)cn1c23` [Example 56, 9-fluoro-10-(1-imidazolyl)-3-methyl-7-oxo-2,3-dihydro-7H-pyrido[3,2,1-ij]-1,3,4-benzoxadiazine-6-carboxylic acid], the MIC [2] is reported as 0.2 µg/mL (≈ 0.606 µM), the MIC [3] is reported as 0.0033 µg/mL (≈ 0.00999 µM) and the MIC [4] is reported as 0.1 µg/mL (≈ 0.303 µM). For the same compound, the MIC [5] was 0.05 µg/mL (≈ 0.151 µM), the MIC [6] was 3.13 µg/mL (≈ 9.48 µM) and the MIC [7] was 0.78 µg/mL (≈ 2.36 µM). It also gave an MIC [8] of 0.39 µg/mL (≈ 1.18 µM), an MIC [9, 25] of 0.0065 µg/mL (≈ 0.0197 µM) and an MIC [10] of 0.1 µg/mL (≈ 0.303 µM). It also gave an MIC [11] of 3.13 µg/mL (≈ 9.48 µM), an MIC ([12]; Staphylococcus aureus) of 0.39 µg/mL (≈ 1.18 µM) and an MIC [13] of 6.25 µg/mL (≈ 18.9 µM). It also gave an MIC [14] of 3.13 µg/mL (≈ 9.48 µM), an MIC [15] of 0.1 µg/mL (≈ 0.303 µM) and an LD50 [16] greater than 2000 mg/kg. It also gave an MIC [17] of 1.56 µg/mL (≈ 4.72 µM), an MIC ([18]; Staphylococcus aureus) of 0.39 µg/mL (≈ 1.18 µM) and an MIC [19] of 0.013 µg/mL (≈ 0.0394 µM). The MIC [20] was 0.05 µg/mL (≈ 0.151 µM), the MIC [21] was 12.5 µg/mL (≈ 37.8 µM) and the MIC [22] was 0.78 µg/mL (≈ 2.36 µM). The MIC [23] was 0.39 µg/mL (≈ 1.18 µM) and the MIC [24] was 0.39 µg/mL (≈ 1.18 µM).

`CC1CN(c2c(F)cc3c(=O)c(C(=O)O)cn4c3c2OCN4C)CCN1C` (stereo not shown) [Example 36, 10-(3,4-dimethyl-1-piperazinyl)-9-fluoro-3-methyl-7-oxo-2,3-dihydro-7H-pyrido[3,2,1-ij]-1,3,4-benzoxadiazine-6-carboxylic acid] gave an MIC [2] of 0.025 µg/mL (≈ 0.0664 µM), an MIC [3] of 0.1 µg/mL (≈ 0.266 µM) and an MIC [4] of 0.2 µg/mL (≈ 0.531 µM). It also gave an MIC [5] of 0.1 µg/mL (≈ 0.266 µM), an MIC [6] of 0.39 µg/mL (≈ 1.04 µM) and an MIC [7] of 0.39 µg/mL (≈ 1.04 µM). It also gave an MIC [8] of 0.2 µg/mL (≈ 0.531 µM), an MIC [9, 25] of 0.05 µg/mL (≈ 0.133 µM) and an MIC [10] of 0.1 µg/mL (≈ 0.266 µM). The MIC [11] was 3.13 µg/mL (≈ 8.32 µM), the MIC [12, 26] was 0.1 µg/mL (≈ 0.266 µM) and the MIC [13] was 6.25 µg/mL (≈ 16.6 µM). For the same compound, the MIC [14] was 0.78 µg/mL (≈ 2.07 µM), the MIC [15] was 0.05 µg/mL (≈ 0.133 µM) and the LD50 [16] was greater than 2000 mg/kg. It also gave an MIC [17] of 0.78 µg/mL (≈ 2.07 µM), an MIC [18, 27] of 0.39 µg/mL (≈ 1.04 µM) and an MIC [19] of 0.025 µg/mL (≈ 0.0664 µM). For the same compound, the MIC [20] was 0.1 µg/mL (≈ 0.266 µM), the MIC [21] was 3.13 µg/mL (≈ 8.32 µM) and the MIC [22] was 0.1 µg/mL (≈ 0.266 µM). The MIC [23] was 0.39 µg/mL (≈ 1.04 µM) and the MIC [24] was 0.2 µg/mL (≈ 0.531 µM).

Compound `CNCC1CCN(c2c(F)cc3c(=O)c(C(=O)O)cn4c3c2OCN4C)C1` (stereo not shown) [Example 17, 9-fluoro-3-methyl-10-[3-[(methylamino)methyl]-1-pyrrolidinyl]-7-oxo-2,3-dihydro-7H-pyrido[3,2,1-ij]-1,3,4-benzoxadiazine-6-carboxylic acid] has an MIC [2] of 0.013 µg/mL (≈ 0.0345 µM), an MIC [3] of 0.025 µg/mL (≈ 0.0664 µM) and an MIC [4] of 0.2 µg/mL (≈ 0.531 µM). It also gave an MIC [5] of 0.1 µg/mL (≈ 0.266 µM), an MIC [6] of 6.25 µg/mL (≈ 16.6 µM) and an MIC [7] of 0.78 µg/mL (≈ 2.07 µM). For the same compound, the MIC [8] was 0.1 µg/mL (≈ 0.266 µM), the MIC [9, 25] was 0.025 µg/mL (≈ 0.0664 µM) and the MIC [10] was 0.1 µg/mL (≈ 0.266 µM). The MIC [11] was 6.25 µg/mL (≈ 16.6 µM), the MIC [12, 26] was 0.025 µg/mL (≈ 0.0664 µM) and the MIC [13] was 6.25 µg/mL (≈ 16.6 µM). It also gave an MIC [14] of 0.39 µg/mL (≈ 1.04 µM), an MIC [15] of 0.05 µg/mL (≈ 0.133 µM) and an LD50 [16] greater than 2000 mg/kg. The MIC [17] was 1.56 µg/mL (≈ 4.14 µM), the MIC [18, 27] was 0.05 µg/mL (≈ 0.133 µM) and the MIC [19] was 0.025 µg/mL (≈ 0.0664 µM). The MIC [20] was 0.05 µg/mL (≈ 0.133 µM), the MIC [21] was 1.56 µg/mL (≈ 4.14 µM) and the MIC [22] was 0.2 µg/mL (≈ 0.531 µM). It also gave an MIC [23] of 0.78 µg/mL (≈ 2.07 µM) and an MIC [24] of 0.2 µg/mL (≈ 0.531 µM).

`CCOC(=O)c1cn2c3c(c(N4CCC(N)C4)c(F)cc3c1=O)OCN2C` (stereo not shown) [Example 65, ethyl 10-(3-amino-1-pyrrolidinyl)-9-fluoro-3-methyl-7-oxo-2,3-dihydro-7H-pyrido[3,2,1-ij]-1,3,4-benzoxadiazine-6-carboxylate] showed an ED50 ([1]; Escherichia coli, ML4707, po, 120 h, read-out: 50% effective dose (ED50)) of 1.12 mg/kg.
